Test results published in patent US7834011B2, “Heterocyclylalkyl derivatives as novel inhibitors of histone deacetylase” (Janssen Pharmaceutica N.V., priority 2006, dated 2010).

Experiments:
[1] = system: A2780 ovarian carcinoma cells; experiment: Antiproliferative activity on A2780 cells (MTT); type: cell-based; conditions: Homo sapiens, 96 h, four days of incubation, read-out: Cellular activity pIC50 C.2 (converted)
Protocol: Cellular activity of the compounds of formula (I) was determined on A2780 tumour cells using a colorimetric assay for cell toxicity or survival (Mosmann Tim, Journal of Immunological Methods 65: 55-63, 1983)(see example C.2).
All compounds tested were dissolved in DMSO and further dilutions were made in culture medium. Final DMSO concentrations never exceeded 0.1% (v/v) in cell proliferation assays. Controls contained A2780 cells and DMSO without compound and blanks contained DMSO but no cells. MTT was dissolved at 5 mg/ml in PBS. A glycine buffer comprised of 0.1 M glycine and 0.1 M NaCl buffered to pH 10.5 with NaOH (1 N) was prepared (all reagents were from Merck).
The human A2780 ovarian carcinoma cells (a kind gift from Dr. T. C. Hamilton [Fox Chase Cancer Centre, Pennsylvania, USA]) were cultured in RPMI 1640 medium supplemented with 2 mM L-glutamine, 50 μg/ml gentamicin and 10% fetal calf serum. Cells were routinely kept as monolayer cultures at 37° C. in a humidified 5% CO2 atmosphere. Cells were passaged once a week using a trypsin/EDTA solution at a split ratio of 1:40. All media and supplements were obtained from Life Technologies. Cells were free of mycoplasma contamination as determined using the Gen-Probe Mycoplasma Tissue Culture kit (supplier: BioMérieux).
Cells were seeded in NUNC™ 96-well culture plates (Supplier: Life Technologies) and allowed to adhere to the plastic overnight. Densities used for plating were 1500 cells per well in a total volume of 200 μl medium. After cell adhesion to the plates, medium was changed and drugs and/or solvents were added to a final volume of 200 μl. Following four days of incubation, medium was replaced by 200 μl fresh medium and cell density and viability was assessed using an MTT-based assay. To each well, 25 μl MTT solution was added and the cells were further incubated for 2 hours at 37° C. The medium was then carefully aspirated and the blue MTT-formazan product was solubilized by addition of 25 μl glycine buffer followed by 100 μl of DMSO. […] Within an experiment, the results for each experimental condition are the mean of 3 replicate wells. For initial screening purposes, compounds were tested at a single fixed concentration of 10^−6 M. For active compounds, the experiments were repeated to establish full concentration-response curves. For each experiment, controls (containing no drug) and a blank incubation (containing no cells or drugs) were run in parallel. The blank value was subtracted from all control and sample values. For each sample, the mean value for cell growth (in absorbance units) was expressed as a percentage of the mean value for cell growth of the control. […] Herein the effects of test compounds are expressed as pIC50 (the negative log value of the IC50-value)(see Table F-2).

[2] = Metabolic stability with rat hepatocytes cell culture C.5.b; type: in vitro ADME; conditions: male, Sprague Dowley, rat hepatocyte cell cultures, read-out: in vitro half-life
Description: Metabolism of drugs means that a lipid-soluble xenobiotic or endobiotic compound is enzymatically transformed into (a) polar, water-soluble, and excretable metabolite(s). The major organ for drug metabolism is the liver. […] However, some metabolites may have enhanced activity or toxic effects. Thus drug metabolism may include both “detoxication” and “toxication” processes. One of the major enzyme systems that determine the organism's capability of dealing with drugs and chemicals is represented by the cytochrome P450 monooxygenases, which are NADPH dependent enzymes. Metabolic stability of compounds can be determined in vitro with the use of subcellular human tissue (see example C.5.a.). Here metabolic stability of the compounds is expressed as % of drug metabolised after 15 minutes incubation of these compounds with microsomes. Quantitation of the compounds was determined by LC-MS analysis. Metabolic stability of compounds can also be determined by calculating the half live of compounds in rat hepatocyte cells (see example C.5.b.).
Rat hepatocytes were isolated from male Sprague Dowley rats. The compounds were dissolved to a 5 mM stock solution in 100% DMSO and incubated at a final concentration of 5 μM for 0, 15, 30, 60 and 120 min with rat hepatocyte cell cultures (0.5 million viable cells/0.5 ml) using 24-well plates.
Samples were prepared for LC-MS by addition of two volumes of DMSO. The samples were thoroughly shaken and subsequently centrifuged at 900 g for 10 min (room temperature). All experiments were performed in triplicate. Of the resulting supernatant 50 μl was analysed by LC-MS.
For LC-MS, elution of samples was performed on a Hypersil BDS C18 column (50×4.6 mm, 5 μm, Thermohypersil, UK). […]
Total injection volume of samples was 50 μL. […] The mass spectrometer was operated in positive ion mode in SIM adjusted to the mass of M+H with a scan width of 1 Da for quantification purposes. […] The metabolic stability of compounds in rat hepatocytes was expressed as in vitro half-lives. […]

Cn1c(CNCC2CCN(c3ncc(C(=O)NO)cn3)CC2)nc2ccccc21 [Compound 3]
IC50 [1]: 100 nM | half-life at 5 μM [2]: 30 to 55 min | melting point: 209 °C
